Results: US20050197383A1, “Quaternary ammonium compounds and their use as anti-tussive agents” (UCB Farchim S.A., priority 1999, published 2005)

Test system: citric acid-induced cough responses
Assay: citric acid-induced cough in conscious guinea-pigs (aerosol pre-treatment)
Format: in vivo, guinea-pig
Settings: aerosol 10.0 mg/ml pre-treatment immediately before citric acid (1M) exposure; 15 minute observation period
Excerpt: The following method is one of the general methods available to determine the antitussive activity of the compounds of the present invention.
Male albino Dunkin-Hartley strain guinea-pigs (weight 300-400 g) can be obtained from various commercial suppliers.
The method is a modification of that described by Adcock J. J., Schneider C. and Smith T. W., “Effects of Morphine and a Novel Opioid Pentapeptide BW443C, on Cough, Nociception and Ventilation in the Unanaesthetized Guinea-pig”, Br. J. Pharmacol., 93, 93-100 (1988). […]
Cylinder air is introduced into the exposure chamber at a flow rate of 1 liter/min, maintained by a needle valve and monitored by a rotameter. […]
Cough responses are induced by exposure to an aerosol of citric acid (1M) for 10 minutes. Animals are continuously monitored by trained observer, and the number of coughs are counted during a 15 minute period from commencement of the citric acid aerosol administration. […]
The three types of response are differentiated primarily by sound and visual observation. […] Each cough is marked on the Grass polygraph paper trace, and from these record numbers, frequency and time of onset of coughs are determined. […]
Quantities of drugs are weighed out and dissolved in a vehicle. […] The sequence of pre-treatment administration is determined according to a 4×4 Latin Square design. […]

Compound: CC(C)[N+](C)(C)CC(O)COc1cccc2ccccc12.[I-] (stereo not shown) [N,N-dimethyl-propranolol iodide, 2-Hydroxy-N-isopropyl-N,N-dimethyl-3-(1-naphthyloxy)propan-1-aminium iodide]
- inhibition of cough responses compared with vehicle (saline) pre-treated guinea pigs: 50-70%
